Drawing on US20230025880A1, “FUSED TRICYCLIC COMPOUND AND MEDICINAL USE THEREOF” (JAPAN TOBACCO INC., priority 2020, published 2023), this text covers IC50 and inhibition for 38 compounds.

For orientation: IC50 means the concentration that inhibits the measured activity by half. High values mean weaker potency in that assay, low ones greater potency in that assay.

Structures are written as SMILES.

The first experiment has as its target T1, human PDHK2 (hPDHK2) (Homo sapiens, UniProt Q15119).
T1 construct: made in house; host or cells: Escherichia coli BL21(DE3), pET-17b vector
The experiment in a line: Inhibitory action of PDHK2 activity (residual PDH activity, NADH absorbance at 340 nm). Type of experiment: biochemical. Conditions: PDH/hPDHK2 complex, PDHK reaction 45 min at room temperature. The method, then: In the case of human PDHK2 (hPDHK2, NCBI Reference Database Accession number NM_002611.4), modified hPDHK2 cDNA wherein FLAG-Tag sequence was added to the N terminus of hPDHK2 cDNA clone (pReceiver-M01/PDK2-GeneCopoeia) as the base was prepared by polymerase chain reaction (PCR) and ligated to the NdeI/EcoRI site of pET-17b vector (Merck KGaA, Catalog Number 69663-3). The recombinant construct was transformed into Escherichia coli DH5α. The recombinant clones were identified, and plasmid DNA was isolated and subjected to the DNA sequence analysis. One clone which had the expected nucleic acid sequence was selected for expression work.
For expression of hPDHK2 activity, Escherichia coli strain BL21(DE3) cells (Merck KGaA, Catalog Number 69450-4) were transformed with the pET17b vector containing modified hPDHK2 cDNA. The Escherichia coli were grown to an optical density 0.6 ([…]) at 30° C. Protein expression was induced by the addition of 500 μmol/L isopropyl-β-thiogalactopyranoside. The Escherichia coli were cultured at 20° C. for 17-18 hr and harvested by centrifugation. The harvested Escherichia coli was resuspended in a suspension buffer (20 mmol/L HEPES-NaOH, 500 mmol/L sodium chloride, 1% ethylene glycol, 0.1% Pluronic (registered trademark) F-68 (pH 8.0), cOmplete, EDTA-free (Roche) (pH 8.0)), and disrupted by a microfluidizer M-110H (MIZUHO INDUSTRIAL CO., LTD.). The precipitate was removed by centrifugation and the supernatant was added to DDDDK-tagged Protein PURIFICATION GEL (MEDICAL & BIOLOGICAL LABORATORIES CO., LTD., Code No. 3329). DDDDK-tagged Protein PURIFICATION GEL was washed with a washing buffer (20 mmol/L HEPES-NaOH, 500 mmol/L sodium chloride, 1% ethylene glycol, 0.1% Pluronic F-68 (pH 8.0)) and the bound protein was eluted with elution buffer 1 (20 mmol/L HEPES-NaOH, 100 μg/mL peptide (amino acid sequence DYKDDDDK) (SEQ ID NO: 1), 500 mmol/L sodium chloride, 1% ethylene glycol, 0.1% Pluronic F-68 (pH 8.0)). The eluted fractions containing FLAG-Tagged protein were pooled, concentrated by an ultrafiltration method, added to a gel filtration column (HiLoad 26/60 Superdex 200 (GE Healthcare Life Sciences, Code No. 17-1070-01)), and eluted with elution buffer 2 (20 mmol/L HEPES-NaOH, 150 mmol/L sodium chloride, 0.5 mmol/L ethylenediaminetetraacetic acid (EDTA), 1% ethylene glycol, 0.1% Pluronic F-68 (pH 8.0)). The eluted fractions were pooled and preserved at −80° C.
PDH (porcine heart PDH complex, Sigma P7032) and 0.5 μg/mL hPDHK2 were mixed in an assay buffer (50 mmol/L 3-morpholinopropanesulfonic acid (pH 7.0), 20 mmol/L dipotassium hydrogen phosphate, 60 mmol/L potassium chloride, 2 mmol/L magnesium chloride, 0.4 mmol/L EDTA, 0.2% poloxamer, 2 mmol/L dithiothreitol) so that the final concentration of PDH was 0.025 U/mL, and the mixture was incubated at 4° C. overnight to obtain a PDH/hPDHK2 complex solution.
PDH was mixed with the assay buffer so that the final concentration was 0.025 U/mL, and the mixture was incubated at 4° C. overnight to prepare a PDH solution.
The test compounds were diluted with DMSO. To measure an inhibitory action of the test compound on the PDHK activity in the PDH/hPDHK2 complex solution, PDH/hPDHK2 complex solution (20 μL), test compound (1.5 μL) and 1.06 μmol/L ATP (diluted with assay buffer) (8.5 μL) were added to a 384 well microplate (Greiner Bio-One 781801) and PDHK reaction was performed at room temperature for 45 min (test compound well). DMSO (1.5 μL) was added to control wells instead of test compound. In addition, DMSO (1.5 μL) was added to blank wells instead of the test compound, and PDH solution was added instead of the PDH/hPDHK2 complex solution. To measure an inhibitory action of the test compound on the PDHK activity inherent in the PDH solution, a test compound was added and the PDH solution instead of the PDH/hPDHK2 complex solution was added to a blank+test compound well. […]
In turn, `C[C@H]1Cn2nc(C(C)(O)C(F)(F)F)cc2-c2cnc([C@@](C)(O)C(F)(F)F)n21` (mixture of isomers) [Example 26] registered an IC50 of 0.031 µM.

For the compound `C[C@H]1Cc2ccccc2-c2cnc([C@@](C)(O)C(F)(F)F)n21` (racemic) [Example 1, 1,1,1-trifluoro-2-(5-methyl-5,6-dihydroimidazo[5,1-a]isoquinolin-3-yl)propan-2-ol], the IC50 turned out to be 0.016 µM. Against the preceding compound, the IC50 is about 1.9-fold lower. Same read-out and setting: then `C[C@H]1Cc2c(C(F)(F)F)noc2-c2cnc([C@@](C)(O)C(F)(F)F)n21` (racemic) [Example 3], with 0.017 µM; and `C[C@H]1Cc2cc(C#N)ccc2-c2cnc([C@@](C)(O)C(F)(F)F)n21` (racemic) [Example 5], with 0.021 µM; and `C[C@H]1Cc2cnc(C(F)(F)F)nc2-c2cnc([C@@](C)(O)C(F)(F)F)n21` (racemic) [Example 6, 1,1,1-trifluoro-2-(6-methyl-2-(trifluoromethyl)-5,6-dihydroimidazo[1′,5′:1,2]pyrido[3,4-d]pyrimidin-8-yl)propan-2-ol], with 0.22 µM. Same read-out and setting: under `C[C@H]1Cc2c(C(F)(F)F)nn(C)c2-c2cnc([C@@](C)(O)C(F)(F)F)n21` (racemic) [Example 24, 2-(1,5-dimethyl-3-(trifluoromethyl)-4,5-dihydro-1H-imidazo[1,5-a]pyrazolo[3,4-c]pyridin-7-yl)-1,1,1-trifluoropropan-2-ol] stands greater than 0.1 µM; under `C[C@H]1Cc2c(C(C)(C)O)noc2-c2cnc([C@@](C)(O)C(F)(F)F)n21` (racemic) [Example 25], 0.018 µM. The same measure, in the same setting: under `C[C@H]1Cc2c(C3CC3)noc2-c2cnc([C@@](C)(O)C(F)(F)F)n21` (racemic) [Example 34, 2-(3-cyclopropyl-5-methyl-4,5-dihydroimidazo[1,5-a]isoxazolo[5,4-c]pyridin-7-yl)-1,1,1-trifluoropropan-2-ol] stands 0.021 µM; under `C[C@H]1Cc2c(noc2C2CC2)-c2cnc([C@@](C)(O)C(F)(F)F)n21` (racemic) [Example 35, 2-(3-cyclopropyl-5-methyl-4,5-dihydroimidazo[1,5-a]isoxazolo[3,4-c]pyridin-7-yl)-1,1,1-trifluoropropan-2-ol], 0.019 µM. As for `C[C@H]1Cc2c(C(F)(F)F)n[nH]c2-c2cnc([C@@](C)(O)C(F)(F)F)n21` (racemic) [Example 50, 1,1,1-trifluoro-2-(5-methyl-3-(trifluoromethyl)-4,5-dihydro-1H-imidazo[1,5-a]pyrazolo[3,4-c]pyridin-7-yl)propan-2-ol], the IC50 amounted to 0.027 µM. `C[C@H]1Cn2c(nnc2C(F)(F)F)-c2cnc([C@@](C)(O)C(F)(F)F)n21` [Example 2, (R)-1,1,1-trifluoro-2-((S)-6-methyl-3-(trifluoromethyl)-5,6-dihydroimidazo[1,5-a] [1,2,4]triazolo[3,4-c]pyrazin-8-yl)propan-2-ol] displayed an IC50 of 0.026 µM. This IC50 and that of the compound before are within 1.5-fold of each other. The same measure, in the same setting: then `C[C@H]1Cn2nc(C(F)(F)F)cc2-c2cnc([C@@](C)(O)C(F)(F)F)n21` [Example 4], with 0.014 µM. Turning to `C[C@H]1Cn2c(cnc2C(F)(F)F)-c2cnc([C@@](C)(O)C(F)(F)F)n21` [Example 7], the IC50 amounted to 0.0075 µM. `C[C@H]1Cn2nccc2-c2cnc([C@@](C)(O)C(F)(F)F)n21` [Example 8] showed an IC50 of 0.0077 µM. Same read-out and setting: then `Cc1cc2n(n1)C[C@H](C)n1c-2cnc1[C@@](C)(O)C(F)(F)F` [Example 9], with 0.013 µM; and `C[C@H]1Cn2nc(C3CC3)cc2-c2cnc([C@@](C)(O)C(F)(F)F)n21` [Example 10], with 0.013 µM. `C[C@H]1Cn2ncc(Cl)c2-c2cnc([C@@](C)(O)C(F)(F)F)n21` [Example 11] displayed an IC50 of 0.034 µM. Still for that read-out and setting: under `CC[C@H]1Cn2nc(C(F)(F)F)cc2-c2cnc([C@@](C)(O)C(F)(F)F)n21` [Example 12] stands greater than 0.1 µM. On the same count and under the same terms, then `C[C@H]1Cn2nc(C(F)(F)F)cc2-c2nnc([C@@](C)(O)C(F)(F)F)n21` [Example 13, (R)-1,1,1-trifluoro-2-((S)-5-methyl-9-(trifluoromethyl)-5,6-dihydropyrazolo[1,5-a] [1,2,4]triazolo[3,4-c]pyrazin-3-yl)propan-2-ol], with 0.013 µM; and `C[C@H]1Cn2c(nnc2C2CC2)-c2cnc([C@@](C)(O)C(F)(F)F)n21` [Example 14], with 0.0063 µM.

Regarding `C[C@H]1Cn2nc(C(C)(C)C)cc2-c2cnc([C@@](C)(O)C(F)(F)F)n21` [Example 15], the half-maximal inhibitory concentration (IC50) worked out at 0.014 µM. Still for that read-out and setting: then `Cc1nnc2n1C[C@H](C)n1c-2cnc1[C@@](C)(O)C(F)(F)F` [Example 16], with 0.012 µM; and `C[C@H]1Cn2c(nnc2C2(C)CC2)-c2cnc([C@@](C)(O)C(F)(F)F)n21` [Example 17], with 0.0073 µM; and `C[C@H]1Cn2c(C(F)(F)F)cnc2-c2cnc([C@@](C)(O)C(F)(F)F)n21` [Example 18], with 0.0065 µM. On the same count and under the same terms, under `C[C@H]1Cn2cc(C(F)(F)F)nc2-c2cnc([C@@](C)(O)C(F)(F)F)n21` [Example 19] stands 0.011 µM. The compound `C[C@H]1Cn2nc(C(C)(C)O)cc2-c2cnc([C@@](C)(O)C(F)(F)F)n21` [Example 20] showed an IC50 of 0.022 µM. `C[C@H]1Cn2c(-c3ccc(F)cc3)nnc2-c2cnc([C@@](C)(O)C(F)(F)F)n21` [Example 21]: 0.0063 µM corresponded to half-maximal inhibition (IC50). Still for that read-out and setting: then `C[C@H]1Cn2nc(C(=O)N(C)C)cc2-c2cnc([C@@](C)(O)C(F)(F)F)n21` [Example 22], with 0.012 µM; and `C[C@H]1Cn2nc(OC(F)F)cc2-c2cnc([C@@](C)(O)C(F)(F)F)n21` [Example 23, (R)-2-((S)-9-(difluoromethoxy)-5-methyl-5,6-dihydroimidazo[1,5-a]pyrazolo[5,1-c]pyrazin-3-yl)-1,1,1-trifluoropropan-2-ol], with 0.013 µM; and `C[C@H]1Cn2nc(OCc3ccccc3)cc2-c2cnc([C@@](C)(O)C(F)(F)F)n21` [Example 27], with 0.011 µM. Same read-out and setting: under `C[C@H]1Cn2nc(O)cc2-c2cnc([C@@](C)(O)C(F)(F)F)n21` [Example 28] stands 0.022 µM. The compound `C[C@H]1Cn2nc(C(F)F)cc2-c2cnc([C@@](C)(O)C(F)(F)F)n21` [Example 29] registered an IC50 of 0.038 µM. Against the preceding compound, the IC50 is about 1.7-fold higher. Same read-out and setting: under `C[C@H]1Cn2nc(OCCC(C)(C)O)cc2-c2cnc([C@@](C)(O)C(F)(F)F)n21` [Example 30] stands 0.012 µM.

In turn, `Cc1cnn2c1-c1cnc([C@@](C)(O)C(F)(F)F)n1[C@@H](C)C2` [Example 31] showed an IC50 of 0.081 µM. `COc1ccc(COCc2cc3n(n2)C[C@H](C)n2c-3cnc2[C@@](C)(O)C(F)(F)F)cc1` [Example 33] returned an IC50 of 0.029 µM. Same read-out and setting: then `C[C@H]1Cn2nc(CO)cc2-c2cnc([C@@](C)(O)C(F)(F)F)n21` [Example 36], with 0.019 µM. Compound `C[C@H]1Cn2nc(C=O)cc2-c2cnc([C@@](C)(O)C(F)(F)F)n21` [Example 37] yielded an IC50 of 0.021 µM.

Regarding `C[C@H]1Cn2nc(C(=O)N3CC(F)(F)C3)cc2-c2cnc([C@@](C)(O)C(F)(F)F)n21` [Example 38], half-maximal inhibition (IC50) required 0.014 µM.

The experiment is the same for the next values; noted with them: at 0.1 μM, given when IC50 value could not be calculated; read-out: hPDHK2 inhibitory rate.
For `C[C@H]1Cc2c(C(F)(F)F)nn(C)c2-c2cnc([C@@](C)(O)C(F)(F)F)n21` (racemic) [Example 24, 2-(1,5-dimethyl-3-(trifluoromethyl)-4,5-dihydro-1H-imidazo[1,5-a]pyrazolo[3,4-c]pyridin-7-yl)-1,1,1-trifluoropropan-2-ol], the inhibition at 0.1 µM is 31%. Take `CC[C@H]1Cn2nc(C(F)(F)F)cc2-c2cnc([C@@](C)(O)C(F)(F)F)n21` [Example 12]: the inhibition at 0.1 µM was 35%.
